# Test results from patent US8871934B2, “Fluorene compound and pharmaceutical use thereof” (Japan Tobacco Inc., priority 2008, dated 2014).
# Read-outs that look alike come from different tables or passages of the source.
# Target: human PDHK2 (hPDHK2) (Homo sapiens (Human), UniProt Q15119)
# Assay: Inhibitory action of PDHK activity in vitro (kinase reaction, residual PDH activity measured)
# Format: biochemical
# [1] = PDHK inhibitory activity, class symbol of IC50
# [2] = read-out: PDHK inhibitory activity IC50
SMILES,IC50 [1],IC50 [2]
CC(C)OC(=O)c1cccc2c1-c1ccccc1C2(O)C(F)(F)F (centres unmarked) [compound 60],> 1 µM,2.04 µM
COC(=O)c1cc(Cl)c2c(c1)C(O)(C(F)(F)F)c1ccccc1-2 (centres unmarked) [compound 61],0.1 to 1 µM,0.294 µM
Oc1ccc2c(c1)-c1ccccc1C2(O)C(F)(F)F (centres unmarked) [compound 62],> 1 µM,15.7 µM
Oc1cccc2c1-c1ccccc1C2(O)C(F)(F)F (centres unmarked) [compound 63],> 1 µM,8.48 µM
OC1(C(F)(F)F)c2ccccc2-c2c(C(F)(F)F)cccc21 (centres unmarked) [compound 64],> 1 µM,18 µM
CON(C)C(=O)c1cccc2c1-c1ccccc1C2(O)C(F)(F)F (centres unmarked) [compound 65],> 1 µM,> 100 µM
CCOc1cccc2c1-c1ccccc1C2(O)C(F)(F)F (centres unmarked) [compound 66],> 1 µM,66.3 µM
CCOc1ccc2c(c1)-c1ccccc1C2(O)C(F)(F)F (centres unmarked) [compound 67],> 1 µM,4.2 µM
CC(=O)c1cccc2c1-c1ccccc1C2(O)C(F)(F)F (centres unmarked) [compound 68],0.1 to 1 µM,0.624 µM
OCc1ccc2c(c1)C(O)(C(F)(F)F)c1ccccc1-2 (centres unmarked) [compound 69],> 1 µM,16 µM
CCCc1ccc2c(c1)C(O)(C(F)(F)F)c1ccccc1-2 (centres unmarked) [compound 70],> 1 µM,2.21 µM
CC(C)c1ccc2c(c1)C(O)(C(F)(F)F)c1ccccc1-2 (centres unmarked) [compound 71],> 1 µM,10.2 µM
CCNC(=O)c1ccc2c(c1)-c1ccccc1C2(O)C(F)(F)F (centres unmarked) [compound 72],> 1 µM,4.42 µM
CC(C)NC(=O)c1ccc2c(c1)-c1ccccc1C2(O)C(F)(F)F (centres unmarked) [compound 73],> 1 µM,4.81 µM
OCc1cccc2c1-c1ccccc1C2(O)C(F)(F)F (centres unmarked) [compound 74],> 1 µM,3.32 µM
COCc1ccc2c(c1)C(O)(C(F)(F)F)c1ccccc1-2 (centres unmarked) [compound 75],> 1 µM,6.78 µM
CC(=O)c1ccc2c(c1)C(O)(C(F)(F)F)c1ccccc1-2 (centres unmarked) [compound 76],> 1 µM,1.75 µM
CC1CCCN1C(=O)c1ccc2c(c1)C(O)(C(F)(F)F)c1ccccc1-2 (centres unmarked) [compound 77],> 1 µM,2.5 µM
O=C(c1ccc2c(c1)C(O)(C(F)(F)F)c1ccccc1-2)N1CC1 (centres unmarked) [compound 78],> 1 µM,1.36 µM

SMILES,IC50 [1],IC50 [2]
O=C(c1ccc2c(c1)C(O)(C(F)(F)F)c1ccccc1-2)N1CC(O)C1 (centres unmarked) [compound 79],0.1 to 1 µM,0.696 µM
CN(C)c1ccc2c(c1)C(O)(C(F)(F)F)c1ccccc1-2 (centres unmarked) [compound 80],> 1 µM,8.25 µM
CCC(=O)c1cccc2c1-c1ccccc1C2(O)C(F)(F)F (centres unmarked) [compound 81],> 1 µM,2.76 µM
COCc1cccc2c1-c1ccccc1C2(O)C(F)(F)F (centres unmarked) [compound 82],> 1 µM,67.3 µM
O=C(c1cccc2c1-c1ccccc1C2(O)C(F)(F)F)C1CC1 (centres unmarked) [compound 83],> 1 µM,1.14 µM
CN(C)c1cccc2c1-c1ccccc1C2(O)C(F)(F)F (centres unmarked) [compound 84],> 1 µM,42.1 µM
CNc1cccc2c1-c1ccccc1C2(O)C(F)(F)F (centres unmarked) [compound 85],> 1 µM,23.1 µM
COC1CN(C(=O)c2ccc3c(c2)C(O)(C(F)(F)F)c2ccccc2-3)C1 (centres unmarked) [compound 86],0.1 to 1 µM,0.378 µM
O=C(c1ccc2c(c1)C(O)(C(F)(F)F)c1ccccc1-2)N1CC(CO)C1 (centres unmarked) [compound 87],0.1 to 1 µM,0.669 µM
CC1CN(C(=O)c2ccc3c(c2)C(O)(C(F)(F)F)c2ccccc2-3)C1 (centres unmarked) [compound 88],> 1 µM,2.53 µM
CCOc1ccc2c(c1)C(O)(C(F)(F)F)c1ccccc1-2 (centres unmarked) [compound 89],> 1 µM,2.15 µM
CC1CCN1C(=O)c1ccc2c(c1)C(O)(C(F)(F)F)c1ccccc1-2 (centres unmarked) [compound 90],0.1 to 1 µM,0.474 µM
Cc1cc(C(=O)N2CCC2)cc2c1-c1ccccc1C2(O)C(F)(F)F (centres unmarked) [compound 91],< 0.1 µM,0.072 µM
OC1(C(F)(F)F)c2ccccc2-c2c(-c3cnco3)cccc21 (centres unmarked) [compound 92],0.1 to 1 µM,0.405 µM
CC(C)C(=O)c1cccc2c1-c1ccccc1C2(O)C(F)(F)F (centres unmarked) [compound 93],> 1 µM,29.5 µM
O=C(c1cc(Cl)c2c(c1)C(O)(C(F)(F)F)c1ccccc1-2)N1CCC1 (centres unmarked) [compound 94],< 0.1 µM,0.049 µM
CNc1ccc2c(c1)C(O)(C(F)(F)F)c1ccccc1-2 (centres unmarked) [compound 95],> 1 µM,7.83 µM
CC(=O)N(C)c1ccc2c(c1)C(O)(C(F)(F)F)c1ccccc1-2 (centres unmarked) [compound 96],> 1 µM,6.57 µM
